In patent publication US10385022B2, “3-amino-pyridines as GPBAR1 agonists” (HOFFMANN-LA ROCHE INC., priority 2011, dated 2019):

Biological target: human GPBAR1 receptor (Homo sapiens (Human), UniProt Q8TDU6)
Assay: functional cAMP assay in CHO-dhfr(minus) cells expressing human GPBAR1 receptors
Type: cell-based
Conditions: CHO-dhfr(minus) cells expressing human GPBAR1, 30 min at 30° C.
In short: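 CHO-dhfr- cells were transfected with human GPBAR1, and a clone was chosen by cAMP response to lithocholic acid. EC50 values come from the cAMP read-out; specificity was checked in non-transfected CHO cells.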

Chain of human GPBAR1 receptor (Q8TDU6 whole entry): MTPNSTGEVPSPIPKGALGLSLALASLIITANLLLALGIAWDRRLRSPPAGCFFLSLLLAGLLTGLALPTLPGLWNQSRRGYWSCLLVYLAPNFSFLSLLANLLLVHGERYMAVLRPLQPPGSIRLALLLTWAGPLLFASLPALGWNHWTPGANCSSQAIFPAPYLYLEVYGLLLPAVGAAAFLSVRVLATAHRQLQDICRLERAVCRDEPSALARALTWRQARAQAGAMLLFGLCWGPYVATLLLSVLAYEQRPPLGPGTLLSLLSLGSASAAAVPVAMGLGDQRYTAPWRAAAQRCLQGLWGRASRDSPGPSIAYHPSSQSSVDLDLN

SMILES | EC50
COc1cc(F)ccc1-c1ccncc1N(C)C(=O)c1cc(SCCNS(N)(=O)=O)cc(C(F)(F)F)c1 [Example 261, N-[4-(4-fluoro-2-methoxyphenyl)pyridin-3-yl]-N-methyl-3-{[2-(sulfamoylamino)ethyl]-sulfanyl}-5-(trifluoromethyl)benzamide] | 190 nM
COc1cc(F)ccc1-c1ccncc1N(C)C(=O)c1cc(SCCNS(C)(=O)=O)cc(C(F)(F)F)c1 [Example 262, N-[4-(4-Fluoro-2-methoxy-phenyl)-pyridin-3-yl]-3-(2-methanesulfonylamino-ethylsulfanyl)-N-methyl-5-trifluoromethyl-benzamide] | 231 nM
COc1ccccc1-c1ccncc1N(C)C(=O)c1cc(C(F)(F)F)cc(S(C)(=O)=O)c1 [Example 263, 3-Methanesulfonyl-N-[4-(2-methoxy-phenyl)-pyridin-3-yl]-N-methyl-5-trifluoromethyl-benzamide] | 17 nM
Cc1cc(-c2cc(F)ccc2C)c(N(C)C(=O)c2cc(C(F)(F)F)cc(S(C)(=O)=O)c2)cn1 [Example 264, N-[4-(5-Fluoro-2-methyl-phenyl)-6-methyl-pyridin-3-yl]-3-methanesulfonyl-N-methyl-5-trifluoromethyl-benzamide] | 2410 nM
COc1cc(F)ccc1-c1ccncc1N(C)C(=O)c1cc(C(F)(F)F)cc(S(=O)(=O)CCN2CCC2)c1 [Example 265, 3-(2-Azetidin-1-yl-ethanesulfonyl)-N-[4-(4-fluoro-2-methoxy-phenyl)-pyridin-3-yl]-N-methyl-5-trifluoromethyl-benzamide] | 121 nM
CCOC(=O)CCc1cc(C(=O)N(C)c2cnccc2-c2ccc(F)cc2OC)cc(C(F)(F)F)c1 [Example 266, 3-(3-{[4-(4-Fluoro-2-methoxy-phenyl)-pyridin-3-yl]-methyl-carbamoyl}-5-trifluoromethyl-phenyl)-propionic acid ethyl ester] | 177 nM
CN(C(=O)c1cc(C(F)(F)F)cc(S(C)(=O)=O)c1)c1cnccc1-c1ccc(F)cc1OCc1ccccc1 [Example 267, N-[4-(2-Benzyloxy-4-fluoro-phenyl)-pyridin-3-yl]-3-methanesulfonyl-N-methyl-5-trifluoromethyl-benzamide] | 3460 nM
COc1cc(F)ccc1-c1ccncc1N(C)C(=O)c1cc(SC2CN(C(=O)OC(C)(C)C)C2)cc(C(F)(F)F)c1 [Example 268, 3-(3-{[4-(4-Fluoro-2-methoxy-phenyl)-pyridin-3-yl]-methyl-carbamoyl}-5-trifluoromethyl-phenylsulfanyl)-azetidine-1-carboxylic acid tert-butyl ester] | 768 nM
COc1cc(F)ccc1-c1ccncc1N(C)C(=O)c1cc(C(F)(F)F)cc(S(=O)(=O)CCNS(N)(=O)=O)c1 [Example 269, N-[4-(4-fluoro-2-methoxyphenyl)pyridin-3-yl]-N-methyl-3-{[2-(sulfamoylamino)ethyl]-sulfonyl}-5-(trifluoromethyl)benzamide] | 94 nM
COc1cc(F)ccc1-c1ccncc1N(C)C(=O)c1cc(C(F)(F)F)cc(S(=O)(=O)CCNS(C)(=O)=O)c1 [Example 270, N-[4-(4-Fluoro-2-methoxy-phenyl)-pyridin-3-yl]-3-(2-methanesulfonylamino-ethanesulfonyl)-N-methyl-5-trifluoromethyl-benzamide] | 133 nM
Cc1ccccc1-c1ccncc1N(C)C(=O)c1cc(NCCO)cc(C(F)(F)F)c1 [Example 271, 3-(2-Hydroxy-ethylamino)-N-methyl-N-(4-o-tolyl-pyridin-3-yl)-5-trifluoromethyl-benzamide] | 3130 nM
CN(C(=O)c1cc(C(F)(F)F)cc(S(C)(=O)=O)c1)c1cnccc1-c1ccccc1OC1COC1 [Example 272, 3-Methanesulfonyl-N-methyl-N-{4-[2-(oxetan-3-yloxy)-phenyl]-pyridin-3-yl}-5-trifluoromethyl-benzamide] | 64 nM
COc1cc(F)ccc1-c1ccncc1N(CC1CCOC1)C(=O)c1cc(C(F)(F)F)cc(S(C)(=O)=O)c1 (centres unmarked) [Example 273, N-[4-(4-Fluoro-2-methoxy-phenyl)-pyridin-3-yl]-3-methanesulfonyl-N-(tetrahydro-furan-3-ylmethyl)-5-trifluoromethyl-benzamide] | 1500 nM
CN(C(=O)c1cc(C(F)(F)F)cc(S(C)(=O)=O)c1)c1cnccc1-c1ccccc1OC(F)(F)F [Example 274, 3-Methanesulfonyl-N-methyl-N-[4-(2-trifluoromethoxy-phenyl)-pyridin-3-yl]-5-trifluoromethyl-benzamide] | 34 nM
COc1cc(F)ccc1-c1ccncc1N(C)C(=O)c1cc(SC2CNC2)cc(C(F)(F)F)c1 [Example 275, 3-(Azetidin-3-ylsulfanyl)-N-[4-(4-fluoro-2-methoxy-phenyl)-pyridin-3-yl]-N-methyl-5-trifluoromethyl-benzamide] | 1230 nM
Cc1ccc(F)cc1-c1ccncc1N(C)C(=O)c1cc(C(F)(F)F)cc(S(C)(=O)=O)c1 [Example 276, N-[4-(5-Fluoro-2-methyl-phenyl)-pyridin-3-yl]-3-methanesulfonyl-N-methyl-5-trifluoromethyl-benzamide] | 162 nM
CN(C(=O)c1cc(C(F)(F)F)cc(S(C)(=O)=O)c1)c1cnccc1-c1ccccc1OC1CCC1 [Example 277, N-[4-(2-Cyclobutoxy-phenyl)-pyridin-3-yl]-3-methanesulfonyl-N-methyl-5-trifluoromethyl-benzamide] | 8 nM
CN(C(=O)c1cc(C(F)(F)F)cc(S(C)(=O)=O)c1)c1cnccc1-c1ccccc1Cl [Example 278, N-[4-(2-Chloro-phenyl)-pyridin-3-yl]-3-methanesulfonyl-N-methyl-5-trifluoromethyl-benzamide] | 107 nM

Further lines, results first:

EC50 | SMILES
77 nM | CN(C(=O)c1cc(C(F)(F)F)cc(S(C)(=O)=O)c1)c1cnccc1-c1cccnc1OCC(F)(F)F [Example 279, 3-Methanesulfonyl-N-methyl-N-[2-(2,2,2-trifluoro-ethoxy)-[3,4′]bipyridinyl-3′-yl]-5-trifluoromethyl-benzamide]
268 nM | COc1cc(F)ccc1-c1ccncc1N(C)C(=O)c1cc(C(F)(F)F)cc(S(=O)(=O)C2CNC2)c1 [Example 280, 3-(Azctidine-3-sulfonyl)-N-[4-(4-fluoro-2-methoxy-phenyl)-pyridin-3-yl]-N-methyl-5-trifluoromethyl-benzamide]
574 nM | COc1cc(F)ccc1-c1ccncc1N(C)C(=O)c1cc(CCC(N)=O)cc(C(F)(F)F)c1 [Example 281, 3-(2-Carbamoyl-ethyl)-N-[4-(4-fluoro-2-methoxy-phenyl)-pyridin-3-yl]-N-methyl-5-trifluoromethyl-benzamide]
69 nM | COc1cc(F)ccc1-c1ccncc1N(C)C(=O)c1cc(C(F)(F)F)cc(S(=O)(=O)C2CN(S(C)(=O)=O)C2)c1 [Example 282, N-[4-(4-Fluoro-2-methoxy-phenyl)-pyridin-3-yl]-3-(1-methanesulfonyl-azetidine-3-sulfonyl)-N-methyl-5-trifluoromethyl-benzamide]
2200 nM | COc1cc(F)ccc1-c1ccncc1N(Cc1ncc(C)o1)C(=O)c1cc(C(F)(F)F)cc(S(C)(=O)=O)c1 [Example 283, N-[4-(4-Fluoro-2-methoxy-phenyl)-pyridin-3-yl]-3-methanesulfonyl-N-(5-methyl-oxazol-2-ylmethyl)-5-trifluoromethyl-benzamide]
353 nM | COc1cc(-c2ccncc2N(C)C(=O)c2cc(C(F)(F)F)cc(S(C)(=O)=O)c2)c(F)cc1F [Example 284, N-[4-(2,4-Difluoro-5-methoxy-phenyl)-pyridin-3-yl]-3-methanesulfonyl-N-methyl-5-trifluoromethyl-benzamide]
2900 nM | COc1ccc(F)c(-c2ccncc2N(C)C(=O)c2cc(C(F)(F)F)cc(S(C)(=O)=O)c2)c1F [Example 285, N-[4-(2,6-Difluoro-3-methoxy-phenyl)-pyridin-3-yl]-3-methanesulfonyl-N-methyl-5-trifluoromethyl-benzamide]
379 nM | CS(=O)(=O)c1cc(C(=O)N(CC#N)c2cnccc2-c2ccccc2Cl)cc(C(F)(F)F)c1 [Example 286, N-[4-(2-Chloro-phenyl)-pyridin-3-yl]-N-cyanomethyl-3-methanesulfonyl-5-trifluoromethyl-benzamide]
539 nM | CS(=O)(=O)c1cc(C(=O)N(CC(F)(F)F)c2cnccc2-c2ccccc2Cl)cc(C(F)(F)F)c1 [Example 287, N-[4-(2-Chloro-phenyl)-pyridin-3-yl]-3-methanesulfonyl-N-(2,2,2-trifluoro-ethyl)-5-trifluoromethyl-benzamide]
1480 nM | CS(=O)(=O)CCN(C(=O)c1cc(C(F)(F)F)cc(S(C)(=O)=O)c1)c1cnccc1-c1ccccc1Cl [Example 288, N-[4-(2-Chloro-phenyl)-pyridin-3-yl]-3-methanesulfonyl-N-(2-methanesulfonyl-ethyl)-5-trifluoromethyl-benzamide]
275 nM | COC(=O)CN(C(=O)c1cc(C(F)(F)F)cc(S(C)(=O)=O)c1)c1cnccc1-c1ccccc1Cl [Example 289, [[4-(2-Chloro-phenyl)-pyridin-3-yl]-(3-methanesulfonyl-5-trifluoromethyl-benzoyl)-amino]-acetic acid methyl ester]
88 nM | COc1cc(F)ccc1-c1ccncc1N(C)C(=O)c1cc(C(F)(F)F)cc(S(=O)(=O)C2CN(S(N)(=O)=O)C2)c1 [Example 292, N-[4-(4-Fluoro-2-methoxy-phenyl)-pyridin-3-yl]-N-methyl-3-(1-sulfamoyl-azetidine-3-sulfonyl)-5-trifluoromethyl-benzamide]
2460 nM | COc1cc(F)ccc1-c1ccncc1N(Cc1nc(C)co1)C(=O)c1cc(C(F)(F)F)cc(S(C)(=O)=O)c1 [Example 293, N-[4-(4-Fluoro-2-methoxy-phenyl)-pyridin-3-yl]-3-methanesulfonyl-N-(4-methyl-oxazol-2-ylmethyl)-5-trifiuoromethyl-benzamide]
42 nM | CS(=O)(=O)c1cc(C(=O)N(Cc2ncco2)c2cnccc2-c2ccccc2Cl)cc(C(F)(F)F)c1 [Example 294, N-[4-(2-Chloro-phenyl)-pyridin-3-yl]-3-methanesulfonyl-N-oxazol-2-ylmethyl-5-trifluoromethyl-benzamide]
